Experimental data published in ChEMBL document CHEMBL1201862, “PubChem BioAssay data set” (2004).
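These data come from cells grown in 96-well plates and exposed to compound for 48 hours at five concentrations. GI50: concentration for 50% inhibition of growth.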 Calls of active or inactive are those of the source. No stated cut-off is given here; in the data, active = GI50 up to about 1.1 µM and inactive = higher.

Assays:
Assay in all cases: NCI tumour cell line growth inhibition, 48 h
CAKI-1 = system: CAKI-1
COLO 205 = system: COLO 205
EKVX = system: EKVX
HCC 2998 = system: HCC 2998
HCT-15 = system: HCT-15
HOP-62 = system: HOP-62
KM-20L2 = system: KM-20L2
M14 = system: M14
NCI-H522 = system: NCI-H522
OVCAR-3 = system: OVCAR-3
OVCAR-5 = system: OVCAR-5
OVCAR-8 = system: OVCAR-8
RXF 393 = system: RXF 393
SF-295 = system: SF-295
SK-OV-3 = system: SK-OV-3
SNB-19 = system: SNB-19
SNB-75 = system: SNB-75
SR = system: SR
TK-10 = system: TK-10
UACC-257 = system: UACC-257

| Compound | GI50 (CAKI-1) | GI50 (COLO 205) | GI50 (EKVX) | GI50 (HCC 2998) | GI50 (HCT-15) [µM] | GI50 (HOP-62) | GI50 (KM-20L2) | GI50 (M14) | GI50 (NCI-H522) | GI50 (OVCAR-3) | GI50 (OVCAR-5) | GI50 (OVCAR-8) | GI50 (RXF 393) | GI50 (SF-295) | GI50 (SK-OV-3) | GI50 (SNB-19) | GI50 (SNB-75) | GI50 (SR) | GI50 (TK-10) | GI50 (UACC-257) |
| --- | --- | --- | --- | --- | --- | --- | --- | --- | --- | --- | --- | --- | --- | --- | --- | --- | --- | --- | --- | --- |
| C=CCN1/C(=C(\C#N)c2nc3ccccc3[nH]2)Sc2c1nc[nH]c2=O | > 100 µM (inactive) | > 100 µM (inactive) | > 100 µM (inactive) | > 100 µM (inactive) | > 100 | > 100 µM (inactive) | > 100 µM (inactive) | > 100 µM (inactive) | > 100 µM (inactive) | > 100 µM (inactive) | > 100 µM (inactive) | > 100 µM (inactive) | 6.68 µM (inactive) | > 100 µM (inactive) | > 100 µM (inactive) | > 100 µM (inactive) | 31.4 µM (inactive) | > 100 µM (inactive) | > 100 µM (inactive) | > 100 µM (inactive) |
| CC(OC(C)(C)C)[C@H](NC(=O)OCC(Cl)(Cl)Cl)C(=O)O (stereo not given in full) | > 100 µM (inactive) | > 100 µM (inactive) | > 100 µM (inactive) | > 100 µM (inactive) | > 100 | > 100 µM (inactive) | > 100 µM (inactive) | > 100 µM (inactive) | > 100 µM (inactive) | > 100 µM (inactive) | > 100 µM (inactive) | > 100 µM (inactive) | 87.9 µM (inactive) | > 100 µM (inactive) | > 100 µM (inactive) | > 100 µM (inactive) | > 100 µM (inactive) | > 100 µM (inactive) | > 100 µM (inactive) | > 100 µM (inactive) |
| C[C@]12CCC(=O)C(O)=C1CC[C@@H]1[C@@H]2CC[C@]2(C)C(=O)CC[C@@H]12 [FORMESTANE] | > 92.9 µM (inactive) | > 100 µM (inactive) | > 88.9 µM (inactive) | > 100 µM (inactive) | > 100 | > 100 µM (inactive) | > 100 µM (inactive) | > 100 µM (inactive) | > 100 µM (inactive) | > 100 µM (inactive) | > 100 µM (inactive) | > 100 µM (inactive) | > 100 µM (inactive) | > 100 µM (inactive) | > 100 µM (inactive) | > 100 µM (inactive) | > 100 µM (inactive) | > 100 µM (inactive) | > 100 µM (inactive) | > 100 µM (inactive) |
